# From article PMC12323621, “Exploring the antimicrobial activity of pantothenamides against uropathogenic Escherichia coli” (Microbiology Spectrum, 2025)
# Read-outs that look alike come from different tables or passages of the source.
# What was measured:
# [1] = system: UPEC strain CFT073; assay: Antimicrobial susceptibility assay, UPEC grown in pooled human urine; assay type: cell-based, Escherichia coli
# From the text: Unless otherwise noted, all reagents were obtained from commercial sources. BAP, 1, and N5-Pan analogs were synthesized according to previously reported procedures ([31], [53]). Urine was self-collected from adult males and females (not menstruating) between 24 and 57 years old (recruitment was open to donors 18–65 years old), who had not used anti-infectives or cranberry products for at least 7 days prior to collection. The collection protocol was approved by the Johns Hopkins University Institutional Review Boards under IRB study NA_00085130. Informed, written consent was obtained from all participants prior to collection. Urine was collected from at least 7 participants over 14 days, stored at 4°C upon collection, and then pooled, filter-sterilized, and frozen at −20°C. Urine Batch A included five male and three female donors with an average age of 33 years (range: 24–57). Urine Batch B included four male and five female donors with an average age of 26 years (range: 24–43). Samples from two donors (donations made at least 30 days apart) were included in both Batch A and Batch B. Urine Batch C included four male and three female donors with an average age of 27 years (range: 24–36). Urine Batch D included four male and three female donors with an average age of 27 years (range: 25–35). Solid urine agar plates were prepared by supplementing cooled 1.5% (wt/vol) agar with filter-sterilized urine in a 4:1 ratio. Liquid MOPS-glycerol was prepared by adding 10 × 3-(N-morpholino)propanesulfonic acid (MOPS) Buffer (Teknova) to water to a final 1× concentration, 1.32 mM K2HPO4, and 0.4% (vol/vol) glycerol and then filter-sterilizing. Unless otherwise noted, all media were supplemented with freshly prepared 20 µM FeSO4. OD600 analyses were performed on Mettler-Toledo UV5Bio UV/Visible spectrophotometer (Columbus, Ohio, USA). For antimicrobial studies, uropathogenic E. coli strain CFT073 (ATCC: BAA-2503) was provided by Kevin Schwartz from the lab of Rodney Welch. All manipulation of UPEC was conducted in a certified biosafety level 2 (BSL-2) laboratory while using BSL-2-associated safety procedures. Antimicrobial data were collected on a Biotek Epoch 2 microplate reader or a Biotek Synergy Neo 2 microplate reader. For metabolic stability studies, losartan potassium (PHR1602), used as an internal standard, was bought from Millipore Sigma (Burlington, MA). Methanol (A456-4) and acetonitrile (A955-4) were purchased from Fisher Chemical (Pittsburgh, PA). Water (9831-03) was purchased from JT Baker (Philipsburg, NJ). Dimethyl sulfoxide (DMSO)(154938-500mL) was purchased from Sigma Aldrich (St. Louis, MO). Mouse plasma (WT) was purchased from Innovative Research (Novi, MI). Mouse liver microsomes (M1000) were purchased from XenoTech LLC (Kansas City, KS).
# All antimicrobial susceptibility assays were conducted as previously described using an aseptic technique with some modification ([7]). Briefly, 3–5 isolated colonies of CFT073 on LB agar or pooled urine agar were inoculated into 3 mL of liquid MOPS-glycerol medium or pooled urine, respectively, and grown overnight with shaking at 37°C. Saturated cultures were diluted 1:50 in fresh medium and grown to an OD600 of 0.4. These exponential phase cultures were then diluted 1:1,000 into fresh medium to yield the experimental inoculum, which was mixed 1:1 with medium containing 1 or N5-Pan analog at twice the desired final concentration in 96-well plates. The final concentration of bacteria in each well was approximately 10^5 CFU/mL in a final volume of 200 µL. The concentration ranges of compounds evaluated in MOPS-glycerol were: 1 (0–312.5 μM), 2 (0–100 μM), 3 (0–500 μM), 4–5 (0–2,000 μM), 6–7 (0–100 μM), and 8–12 (0-2,000 μM). Analogs 1, 6, and 7 were evaluated over a range of 0–4,000 μM in four batches of pooled human urine. The OD600 was monitored for 24 h (MOPS-glycerol) or 16 h (pooled urine) at 37°C with periodic shaking. […]
# [2] = Stability in mouse liver homogenate; assay type: in vitro ADME; settings: for remaining at 1 h, 10 µM: mouse, liver tissue homogenate (10% wt/vol), 10% wt/vol homogenate, 10 µM compound, 37°C; for stability in mouse liver homogenate: n = 3
# Experimental: Stability studies were conducted in mouse liver microsomes, mouse liver tissue homogenate, and CD1 mouse plasma as previously described with minor modifications ([54][–][56]). Briefly, for Phase I mouse liver microsome stability, reactions were carried out with 200 mM potassium phosphate buffer, pH 7.4, with or without an NADPH-regenerating system (1.3 mM NADPH, 3.3 mM glucose 6-phosphate, 3.3 mM MgCl2, 0.4 U/mL glucose-6-phosphate dehydrogenase, and 50 µM sodium citrate). Reactions, in triplicate, were initiated by the addition of liver microsomes to the incubation mixture (compound final concentration was 1 µM; 0.2 mg/mL microsomes) and incubated at 37°C for the desired incubation time. For liver stability, the tissue homogenate was prepared by washing tissues with diluted 10-fold 0.1 M potassium phosphate buffer and homogenized using a probe sonicator over ice. To evaluate the stability of the drugs over time, each of the crude homogenates was aliquoted to 1 mL and then spiked with a final assay concentration of 10 µM of each drug, followed by incubation in an orbital shaker at 37°C for 1 h (in triplicate). For plasma stability, 1 mL of plasma was spiked with 10 µM of each drug, followed by incubation in an orbital shaker at 37°C for 1 h (in triplicate). Samples from each metabolism study were quenched with 3× volume of acetonitrile containing internal standard (losartan: 0.5 µM) at the desired incubation times. […] Samples were vortex-mixed for 30 s and centrifuged at 10,000 × g for 10 min at 4°C. Compound disappearance over time was monitored using a Dionex ultra-high-performance liquid chromatography system consisting of an analytical pump and an autosampler coupled with Q Exactive Focus orbitrap mass spectrometer (Thermo Fisher Scientific Inc., Waltham MA). […] The mobile phase used was composed of 0.1% formic acid in water and 0.1% formic acid in acetonitrile with gradient elution. The total run time for each analyte was 5 min.
# The mass spectrometer was operated with a HESI ion source in positive ionization mode where compounds were identified in the full scan mode (from m/z 75.00–1125.00) and controlled by the Xcalibur software 4.0.27.13 (Thermo Scientific). Data were acquired using Xcalibur software. Drugs were identified in the full-scan mode (from m/z 75.00 to 1125.00) by comparing t = 0 samples with t = 30 or 60 min samples, and structures were proposed based on the accurate mass information. The percentage of compound remaining for pantothenamides 1, 6, and 7 was determined from the analyte/internal standard (IS) area ratios obtained at t = 30 or 60 min relative to the mean ratios obtained at t = 0 min and calculated using equation 1:
# % Remaining=(Peak area of Analyte/Preak area of ISat t=30 or 60 min/MeanPeak area of Analyte/Peak area of ISat t=0 min)×100
# [3] = Escherichia coli, UPEC CFT073, all urine batches A-D, read-out: MIC across four batches of pooled urine
# [4] = Escherichia coli, UPEC CFT073, urine batch A, read-out: MIC in pooled human urine, urine batch A
# [5] = Escherichia coli, UPEC CFT073, urine batch B, read-out: MIC in pooled human urine, urine batch B
# [6] = Escherichia coli, UPEC CFT073, urine batch C, read-out: MIC in pooled human urine, urine batch C
# [7] = Escherichia coli, UPEC CFT073, urine batch D, read-out: MIC in pooled human urine, urine batch D
# [8] = UPEC CFT073, urine batch A, read-out: MIC in pooled human urine, urine batch A
# [9] = UPEC CFT073, urine batch B, read-out: MIC in pooled human urine, urine batch B
"MIC [1, 3] [µM]","MIC [1, 4] [µM]","MIC [1, 5] [µM]","MIC [1, 6] [µM]","MIC [1, 7] [µM]","MIC [1, 8] [µM]","MIC [1, 9] [µM]","remaining at 1 h, 10 µM [2] [%]",stability in mouse liver homogenate [2],fold higher MIC in urine than in MOPS-glycerol ([1]; urine MICs vs MIC in MOPS-glycerol) [fold],Compound
250 to 1000,1000,250,1000,1000,1000,250,17,unstable,,"CCCCCNC(=O)CCNC(=O)[C@H](O)C(C)(C)CO [compound 1, N-pentylpantothenamide, reference compound]"
250 to 1000,1000,250,500,500,1000,250,96,good stability,> 40,"CCCCCNC(=O)CNC(=O)[C@H](O)C(C)(C)CO [compound 6, N5-α-pantothenamide]"
